Measured values taken from BigSolDB 2.1.

SMILES: CS(=O)(=O)OCCCCOS(C)(=O)=O
- solubility (mole fraction) (in 2-butoxyethanol, 278.15 K): 0.000161
- solubility (mole fraction) (in 2-butoxyethanol, 283.15 K): 0.000208
- solubility (mole fraction) (in 2-butoxyethanol, 288.15 K): 0.000261
- solubility (mole fraction) (in 2-butoxyethanol, 293.15 K): 0.000332
- solubility (mole fraction) (in 2-butoxyethanol, 298.15 K): 0.000417
- solubility (mole fraction) (in 2-butoxyethanol, 303.15 K): 0.000522
- solubility (mole fraction) (in 2-butoxyethanol, 308.15 K): 0.00066
- solubility (mole fraction) (in 2-butoxyethanol, 313.15 K): 0.000811
- solubility (mole fraction) (in 2-butoxyethanol, 318.15 K): 0.00102
- solubility (mole fraction) (in 2-butoxyethanol, 323.15 K): 0.00124
- solubility (mole fraction) (in 2-ethoxyethanol, 278.15 K): 0.000166
- solubility (mole fraction) (in 2-ethoxyethanol, 283.15 K): 0.000255
- solubility (mole fraction) (in 2-ethoxyethanol, 288.15 K): 0.000389
- solubility (mole fraction) (in 2-ethoxyethanol, 293.15 K): 0.000587
- solubility (mole fraction) (in 2-ethoxyethanol, 298.15 K): 0.000857
- solubility (mole fraction) (in 2-ethoxyethanol, 303.15 K): 0.00128
- solubility (mole fraction) (in 2-ethoxyethanol, 308.15 K): 0.00179
- solubility (mole fraction) (in 2-ethoxyethanol, 313.15 K): 0.00259
- solubility (mole fraction) (in 2-ethoxyethanol, 318.15 K): 0.00367
- solubility (mole fraction) (in 2-ethoxyethanol, 323.15 K): 0.00511
- solubility (mole fraction) (in 2-methoxyethanol, 278.15 K): 0.000446
- solubility (mole fraction) (in 2-methoxyethanol, 283.15 K): 0.000675
- solubility (mole fraction) (in 2-methoxyethanol, 288.15 K): 0.00104
- solubility (mole fraction) (in 2-methoxyethanol, 293.15 K): 0.00149
- solubility (mole fraction) (in 2-methoxyethanol, 298.15 K): 0.0022
- solubility (mole fraction) (in 2-methoxyethanol, 303.15 K): 0.00311
- solubility (mole fraction) (in 2-methoxyethanol, 308.15 K): 0.00438
- solubility (mole fraction) (in 2-methoxyethanol, 313.15 K): 0.00609
- solubility (mole fraction) (in 2-methoxyethanol, 318.15 K): 0.0085
- solubility (mole fraction) (in 2-methoxyethanol, 323.15 K): 0.0118
- solubility (mole fraction) (in 2-propoxyethanol, 278.15 K): 0.000168
- solubility (mole fraction) (in 2-propoxyethanol, 283.15 K): 0.000221
- solubility (mole fraction) (in 2-propoxyethanol, 288.15 K): 0.00031
- solubility (mole fraction) (in 2-propoxyethanol, 293.15 K): 0.000398
- solubility (mole fraction) (in 2-propoxyethanol, 298.15 K): 0.00053
- solubility (mole fraction) (in 2-propoxyethanol, 303.15 K): 0.000693
- solubility (mole fraction) (in 2-propoxyethanol, 308.15 K): 0.000905
- solubility (mole fraction) (in 2-propoxyethanol, 313.15 K): 0.00118
- solubility (mole fraction) (in 2-propoxyethanol, 318.15 K): 0.00155
- solubility (mole fraction) (in 2-propoxyethanol, 323.15 K): 0.00196
- solubility (mole fraction) (in DMF, 278.15 K): 0.0116
- solubility (mole fraction) (in DMF, 283.15 K): 0.0151
- solubility (mole fraction) (in DMF, 288.15 K): 0.0194
- solubility (mole fraction) (in DMF, 293.15 K): 0.0248
- solubility (mole fraction) (in DMF, 298.15 K): 0.0317
- solubility (mole fraction) (in DMF, 303.15 K): 0.0397
- solubility (mole fraction) (in DMF, 308.15 K): 0.0495
- solubility (mole fraction) (in DMF, 313.15 K): 0.0611
- solubility (mole fraction) (in DMF, 318.15 K): 0.076
- solubility (mole fraction) (in DMF, 323.15 K): 0.0929
- solubility (mole fraction) (in DMSO, 298.15 K): 0.0367
- solubility (mole fraction) (in DMSO, 303.15 K): 0.0459
- solubility (mole fraction) (in DMSO, 308.15 K): 0.0567
- solubility (mole fraction) (in DMSO, 313.15 K): 0.0695
- solubility (mole fraction) (in DMSO, 318.15 K): 0.0851
- solubility (mole fraction) (in DMSO, 323.15 K): 0.103
- solubility (mole fraction) (in NMP, 278.15 K): 0.0172
- solubility (mole fraction) (in NMP, 283.15 K): 0.0215
- solubility (mole fraction) (in NMP, 288.15 K): 0.0266
- solubility (mole fraction) (in NMP, 293.15 K): 0.0328
- solubility (mole fraction) (in NMP, 298.15 K): 0.0401
- solubility (mole fraction) (in NMP, 303.15 K): 0.0487
- solubility (mole fraction) (in NMP, 308.15 K): 0.059
- solubility (mole fraction) (in NMP, 313.15 K): 0.0713
- solubility (mole fraction) (in NMP, 318.15 K): 0.0853
- solubility (mole fraction) (in NMP, 323.15 K): 0.102
- solubility (mole fraction) (in ethanol, 278.15 K): 1.55e-05
- solubility (mole fraction) (in ethanol, 283.15 K): 2.49e-05
- solubility (mole fraction) (in ethanol, 288.15 K): 3.95e-05
- solubility (mole fraction) (in ethanol, 293.15 K): 6.08e-05
- solubility (mole fraction) (in ethanol, 298.15 K): 9.34e-05
- solubility (mole fraction) (in ethanol, 303.15 K): 0.000142
- solubility (mole fraction) (in ethanol, 308.15 K): 0.000211
- solubility (mole fraction) (in ethanol, 313.15 K): 0.000315
- solubility (mole fraction) (in ethanol, 318.15 K): 0.00046
- solubility (mole fraction) (in ethanol, 323.15 K): 0.000655
- solubility (mole fraction) (in ethyl acetate, 278.15 K): 0.000385
- solubility (mole fraction) (in ethyl acetate, 283.15 K): 0.000575
- solubility (mole fraction) (in ethyl acetate, 288.15 K): 0.00081
- solubility (mole fraction) (in ethyl acetate, 293.15 K): 0.00112
- solubility (mole fraction) (in ethyl acetate, 298.15 K): 0.0016
- solubility (mole fraction) (in ethyl acetate, 303.15 K): 0.00209
- solubility (mole fraction) (in ethyl acetate, 308.15 K): 0.00287
- solubility (mole fraction) (in ethyl acetate, 313.15 K): 0.0038
- solubility (mole fraction) (in ethyl acetate, 318.15 K): 0.00525
- solubility (mole fraction) (in ethyl acetate, 323.15 K): 0.00705
- solubility (mole fraction) (in methanol, 278.15 K): 4.32e-05
- solubility (mole fraction) (in methanol, 283.15 K): 6.97e-05
- solubility (mole fraction) (in methanol, 288.15 K): 0.000107
- solubility (mole fraction) (in methanol, 293.15 K): 0.000167
- solubility (mole fraction) (in methanol, 298.15 K): 0.000251
- solubility (mole fraction) (in methanol, 303.15 K): 0.000379
- solubility (mole fraction) (in methanol, 308.15 K): 0.000555
- solubility (mole fraction) (in methanol, 313.15 K): 0.000813
- solubility (mole fraction) (in methanol, 318.15 K): 0.00119
- solubility (mole fraction) (in methanol, 323.15 K): 0.00169
- solubility (mole fraction) (in methyl acetate, 278.15 K): 0.000892
- solubility (mole fraction) (in methyl acetate, 283.15 K): 0.00109
- solubility (mole fraction) (in methyl acetate, 288.15 K): 0.00179
- solubility (mole fraction) (in methyl acetate, 293.15 K): 0.00248
- solubility (mole fraction) (in methyl acetate, 298.15 K): 0.00323
- solubility (mole fraction) (in methyl acetate, 303.15 K): 0.0045
- solubility (mole fraction) (in methyl acetate, 308.15 K): 0.00592
- solubility (mole fraction) (in methyl acetate, 313.15 K): 0.008
- solubility (mole fraction) (in methyl acetate, 318.15 K): 0.0107
- solubility (mole fraction) (in methyl acetate, 323.15 K): 0.0145
- solubility (mole fraction) (in n-butanol, 278.15 K): 6.8e-06
- solubility (mole fraction) (in n-butanol, 283.15 K): 1.09e-05
- solubility (mole fraction) (in n-butanol, 288.15 K): 1.72e-05
- solubility (mole fraction) (in n-butanol, 293.15 K): 2.66e-05
- solubility (mole fraction) (in n-butanol, 298.15 K): 4.22e-05
- solubility (mole fraction) (in n-butanol, 303.15 K): 6.35e-05
- solubility (mole fraction) (in n-butanol, 308.15 K): 9.25e-05
- solubility (mole fraction) (in n-butanol, 313.15 K): 0.000135
- solubility (mole fraction) (in n-butanol, 318.15 K): 0.000191
- solubility (mole fraction) (in n-butanol, 323.15 K): 0.000276
- solubility (mole fraction) (in n-butyl acetate, 278.15 K): 0.000209
- solubility (mole fraction) (in n-butyl acetate, 283.15 K): 0.000289
- solubility (mole fraction) (in n-butyl acetate, 288.15 K): 0.000402
- solubility (mole fraction) (in n-butyl acetate, 293.15 K): 0.000549
- solubility (mole fraction) (in n-butyl acetate, 298.15 K): 0.000785
- solubility (mole fraction) (in n-butyl acetate, 303.15 K): 0.000962
- solubility (mole fraction) (in n-butyl acetate, 308.15 K): 0.00122
- solubility (mole fraction) (in n-butyl acetate, 313.15 K): 0.00175
- solubility (mole fraction) (in n-butyl acetate, 318.15 K): 0.00218
- solubility (mole fraction) (in n-butyl acetate, 323.15 K): 0.00281
- solubility (mole fraction) (in n-propanol, 278.15 K): 4.5e-06
- solubility (mole fraction) (in n-propanol, 283.15 K): 8e-06
- solubility (mole fraction) (in n-propanol, 288.15 K): 1.43e-05
- solubility (mole fraction) (in n-propanol, 293.15 K): 2.4e-05
- solubility (mole fraction) (in n-propanol, 298.15 K): 4.05e-05
- solubility (mole fraction) (in n-propanol, 303.15 K): 6.68e-05
- solubility (mole fraction) (in n-propanol, 308.15 K): 0.000107
- solubility (mole fraction) (in n-propanol, 313.15 K): 0.000173
- solubility (mole fraction) (in n-propanol, 318.15 K): 0.000277
- solubility (mole fraction) (in n-propanol, 323.15 K): 0.000444
- solubility (mole fraction) (in n-propyl acetate, 278.15 K): 0.00016
- solubility (mole fraction) (in n-propyl acetate, 283.15 K): 0.000298
- solubility (mole fraction) (in n-propyl acetate, 288.15 K): 0.000468
- solubility (mole fraction) (in n-propyl acetate, 293.15 K): 0.000649
- solubility (mole fraction) (in n-propyl acetate, 298.15 K): 0.00101
- solubility (mole fraction) (in n-propyl acetate, 303.15 K): 0.00137
- solubility (mole fraction) (in n-propyl acetate, 308.15 K): 0.00195
- solubility (mole fraction) (in n-propyl acetate, 313.15 K): 0.00272
- solubility (mole fraction) (in n-propyl acetate, 318.15 K): 0.00386
- solubility (mole fraction) (in n-propyl acetate, 323.15 K): 0.00531
